{"source": "patent US10946019B2", "about": "“Nurr1:RXR activating compounds for simultaneous treatment of symptoms and pathology of Parkinson's disease” (priority 2015, dated 2021)", "key": {"striatum 5HT levels": {"tested_on": "striatum 5HT levels", "experiment": "Striatal 5-HT and 5-HIAA levels by HPLC-ECD", "assay_type": "in vivo, mouse", "conditions": "C57/BL6 mice, IP 20 mg/kg, 4 h post injection", "method": "(§1) We measured striatal 5-HT levels, and we detected 5-HT and 5-HIAA in wild type C57/BL6 mice. 4 hours after dosing animals were killed by cervical dislocation, brains were removed, and the striata were dissected on ice. The samples were immediately frozen and stored at −80° C. until use. The tissues were processed for the analysis by high performance liquid chromatography (HPLC) with an electrochemical detector (ECD) (Emmanouil et al., 2006). The dissected tissues were weighed, homogenized, and deproteinized in 0.2 N perchloric acid solution containing 7.9 mM Na2S2O5 and 1.3 mM Na2EDTA. The homogenate was centrifuged at 37,000×g for 30 minutes, and the supernatant was stored at −80° C. until assayed. A reverse-phase ion-pair chromatography was used in all analyses, and the mobile phase consisted of an acetonitrile-50 mM phosphate buffer at pH 3.0, containing 5-octylsulfate sodium salt (300 mg/L) as the ion-pair reagent and (20 mg/L) Na2EDTA. Reference standards were prepared in 0.2 N perchloric acid solution containing 7.9 mM Na2S2O5 and 1.3 mM Na2EDTA. Samples were quantified by comparison of the areas under the peaks with those of reference standards using HPLC software (Chromatography Station for Windows™, Watrex International Inc., San Francisco, Calif.) (FIG. 3C)."}, "[1]": {"molecular_target": "Nur77GAL4:RXRαVP16 heterodimers (Homo sapiens (Human), UniProt P19793)", "sequence (P19793 whole entry, looked up, the tested form may be a part)": "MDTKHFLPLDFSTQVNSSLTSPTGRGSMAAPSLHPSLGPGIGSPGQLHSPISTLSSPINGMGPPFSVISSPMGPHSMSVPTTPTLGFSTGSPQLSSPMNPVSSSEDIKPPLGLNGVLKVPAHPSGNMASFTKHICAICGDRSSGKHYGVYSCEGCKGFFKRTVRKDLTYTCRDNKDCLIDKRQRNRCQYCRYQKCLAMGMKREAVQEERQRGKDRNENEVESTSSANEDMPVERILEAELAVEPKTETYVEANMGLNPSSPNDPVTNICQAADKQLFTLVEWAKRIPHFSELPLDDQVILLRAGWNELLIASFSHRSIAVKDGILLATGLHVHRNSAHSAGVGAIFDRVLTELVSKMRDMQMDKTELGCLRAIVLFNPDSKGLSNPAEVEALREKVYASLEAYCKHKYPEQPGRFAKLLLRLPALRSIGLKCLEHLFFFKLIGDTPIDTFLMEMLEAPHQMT", "sequence (P22736 whole entry partner, looked up, the tested form may be a part)": "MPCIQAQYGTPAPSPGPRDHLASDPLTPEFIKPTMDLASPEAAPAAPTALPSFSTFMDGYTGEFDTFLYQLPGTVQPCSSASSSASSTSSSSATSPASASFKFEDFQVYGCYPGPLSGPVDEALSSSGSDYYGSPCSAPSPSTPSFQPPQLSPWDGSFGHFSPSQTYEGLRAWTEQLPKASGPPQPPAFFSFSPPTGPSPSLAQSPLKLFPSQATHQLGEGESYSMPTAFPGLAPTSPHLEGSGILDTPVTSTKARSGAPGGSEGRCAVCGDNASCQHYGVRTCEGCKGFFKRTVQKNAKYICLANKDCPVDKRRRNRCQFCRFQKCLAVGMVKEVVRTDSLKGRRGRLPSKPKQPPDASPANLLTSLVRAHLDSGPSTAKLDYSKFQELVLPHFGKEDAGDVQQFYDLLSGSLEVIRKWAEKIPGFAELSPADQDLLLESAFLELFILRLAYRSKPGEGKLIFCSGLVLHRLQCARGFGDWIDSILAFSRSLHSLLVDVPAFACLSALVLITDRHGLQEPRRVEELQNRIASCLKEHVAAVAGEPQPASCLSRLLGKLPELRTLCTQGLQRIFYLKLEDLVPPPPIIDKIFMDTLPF", "experiment": "GAL4/VP16 chimera specificity luciferase assay in SHSY-5Y", "assay_type": "cell-based", "conditions": "GAL4-responsive luciferase reporter", "description": "To test off-target effects of compound 3 on complexes aside from Nurr1:RXRα heterodimers, we fused the ligand binding domains of Nurr1, RXRα and a variety of related nuclear receptors to GAL4 DNA-binding domain to create chimeric proteins, while the ligand-binding domain of RXRα was also fused with VP16. These molecular chimeras were co-transfected in pairs with the RXRα:VP16 along with a GAL4-responsive luciferase reporter in SHSY-5Y, which were stimulated with compound 3. […] The above experiments indicate the high degree of selectivity of compound 3 and point to its neuroprotective potential."}, "SHSY-5Y cells": {"tested_on": "SHSY-5Y cells", "experiment": "H2O2 induced cell death, MTT assay", "assay_type": "cell-based, human", "conditions": "12.5 μM, varying concentrations of H2O2", "description": "FIGS. 72A-72R show the ability of compound 3 to induce the expression of genes involved in dopamine biosynthesis as well as the neuroprotective effects of compound 3 in cell lines and patient iPCs-derived dopaminergic neurons. […] FIGS. 72F, 72G, 72H, and 72I show representative confocal microscopy images of the compound 3-treated primary rat cortical neurons. […] FIG. 72M-72R show the effects of compound 3 on PD patient iPS cell-derived dopaminergic neurons with the LRRK2-G2019S mutation or corrected mutation (GC). Compound 3 treatment rescues neurite length (M, expressed in […]), number (N) and branching (O) phenotypes. Representative images show staining with TuJ, TH and DAPI (FIGS. 72P, 72Q, and 72R).\nWe examined the neuroprotective capability of Nurr1:RXRα heterodimer activation in SHSY-5Y cells where death was induced by either the oxidative stress related H2O2 or the mitochondria complex I inhibitor MPP+ (1-methyl-4-phenylpyridinium) (FIG. 72B). […] The protection conferred by compound 3 was Nurr1-dependent, since it was abrogated by knocking-down endogenous Nurr1 mRNA (FIGS. 1E and 72D). […] Rat cortical neurons, co-transfected with CMV-GFP for identification, and CMVLRRK2-G2019S cDNAs show increased apoptosis as assessed by DAPI staining, compared to control neurons co-transfected with a LRRK2 wt cDNA."}, "[2]": {"tested_on": "Nurr1 heterozygote 129/SV mice treated with MPTP", "experiment": "Neuroprotection against MPTP in Nurr1 heterozygote 129/SV mice", "assay_type": "in vivo, mouse", "conditions": "Nurr1 heterozygote (Nurr1+/−) 129/SV mice", "method": "20 mg/kg MPTP injections were administered 4 times at the zero day of treatment, spaced 2 hours apart. 7 days after the MPTP injections there was approximately an 80% reduction in striatal projections and 40%-50% dopaminergic neuron death in the SN."}, "noradrenaline levels": {"tested_on": "noradrenaline levels", "experiment": "Striatal noradrenaline levels by HPLC-ECD", "assay_type": "in vivo, mouse", "conditions": "4 hours", "method": "as §1, with “4” for “We measured striatal 5-HT levels, and we detected 5-HT and 5-HIAA in wild type C57/BL6 mice. 4”, “3D).” for “3C).”"}, "[3]": {"experiment": "Plasma and brain concentrations by LC-MS/MS after IP administration to mice", "assay_type": "in vivo, mouse", "conditions": "mouse, in vivo, ip", "method": "FIGS. 68A and 68B show the pharmacokinetic profile of XCT in blood plasma and in the brain of mice injected with this compound. […] Serial tail bleeds (n=3) were used for detection of the compound in plasma 1 and 2 hours after IP administration. Similarly, mice (n=3) were sacrificed 1 and 2 hours after IP administration and brains were dissected. The concentrations of the parent compound in plasma and brain were determined by LC-MS/MS.\nThe concentrations of the parent compound in plasma and brain were determined by LC/MSMS.\nXCT0135908 was administered to mice to test its bioactivity."}, "ASYN transgenic mice": {"tested_on": "ASYN transgenic mice", "experiment": "Striatal dopamine levels in ASYN transgenic mice by HPLC", "assay_type": "in vivo, mouse", "conditions": "single IP 10 mg/kg, vs vehicle", "method": "Given the role of Nurr1:RXRα activation in the transcriptional regulation of DA biosynthesis genes, we tested whether compound 3 could increase DA levels in wt and ASYN transgenic mice (Tofaris et al. J. Neurosci. 26:3942-3950, 2006), which display reduced striatal DA levels after reaching adulthood. […] Aiming to model PD based on human genetic data, we also tested whether compound 3 could increase DA levels in ASYN transgenic mice. A single IP injection of compound 3 (10 mg/kg) was able increase striatal DA (t test p=0.01069) and DA metabolite levels in ASYN transgenics as well (FIG. 75C) in comparison to mice receiving vehicle."}}, "note": "Entries after “also recorded” stand apart in the source; their conditions may differ.", "data": [{"smiles": "C=CCc1c(N(C)c2ccc(C(=O)O)cc2)nc(-c2ccccc2)nc1C(F)(F)F", "note": "[Example 3, 4-((5-allyl-2-phenyl-6-(trifluoromethyl)pyrimidin-4-yl)(methyl)amino)benzoic acid]", "values": [{"measurement": "striatum 5HT levels and 5HT metabolite 5HIAA levels", "setting": "striatum 5HT levels", "value": "increased"}, {"measurement": "activation of Nur77GAL4:RXRαVP16 heterodimers", "setting": "[1]", "value": "partially activated"}, {"measurement": "cell survival against H2O2", "setting": "SHSY-5Y cells", "value": "significantly increased cell survival"}, {"measurement": "neuroprotection against MPTP toxicity (surviving neuronal bodies)", "setting": "[2]", "value": "did not lead to a statistically significant increase; also recorded: abolished"}, {"measurement": "noradrenaline levels", "setting": "noradrenaline levels; IP 10 mg/kg", "value": "remained unaffected"}, {"measurement": "noradrenaline levels", "setting": "noradrenaline levels; wild type C57/BL6 mice, single IP 20 mg/kg", "value": "did not increase"}, {"measurement": "brain penetration", "setting": "[3]", "value": "reaching the brain"}, {"measurement": "half-life", "setting": "[3]; 1 mg/kg", "value": "~2", "unit": "h"}, {"measurement": "striatal DA and DA metabolite levels", "setting": "ASYN transgenic mice", "value": "increase"}]}]}
